According to ChEMBL document CHEMBL1177794, “Broad spectrum alkynyl inhibitors of T315I Bcr-Abl” (Bioorg Med Chem Lett, 2010):

Key:
[1] = test system: Tyrosine-protein kinase ABL1 (Homo sapiens), P00519 [Q252H]; test: Inhibition of non phosphorylated ABL1 Q252H mutant at 10 uM; conditions: values are per cent of control
[2] = target: Tyrosine-protein kinase ABL1 (Homo sapiens) (UniProt P00519); test: Inhibition of phosphorylated ABL1 at 10 uM; conditions: values are per cent of control
[3] = target: Mitogen-activated protein kinase kinase kinase 5 (Homo sapiens) (UniProt Q99683); test: Inhibition of ASK1 at 10 uM; conditions: values are per cent of control
[4] = target: Calcium/calmodulin-dependent protein kinase type II subunit gamma (Homo sapiens) (UniProt Q13555); test: Inhibition of CAMK2G at 10 uM; conditions: values are per cent of control
Sequence of Calcium/calmodulin-dependent protein kinase type II subunit gamma (Homo sapiens) (Q13555 whole entry, the tested form may be a part): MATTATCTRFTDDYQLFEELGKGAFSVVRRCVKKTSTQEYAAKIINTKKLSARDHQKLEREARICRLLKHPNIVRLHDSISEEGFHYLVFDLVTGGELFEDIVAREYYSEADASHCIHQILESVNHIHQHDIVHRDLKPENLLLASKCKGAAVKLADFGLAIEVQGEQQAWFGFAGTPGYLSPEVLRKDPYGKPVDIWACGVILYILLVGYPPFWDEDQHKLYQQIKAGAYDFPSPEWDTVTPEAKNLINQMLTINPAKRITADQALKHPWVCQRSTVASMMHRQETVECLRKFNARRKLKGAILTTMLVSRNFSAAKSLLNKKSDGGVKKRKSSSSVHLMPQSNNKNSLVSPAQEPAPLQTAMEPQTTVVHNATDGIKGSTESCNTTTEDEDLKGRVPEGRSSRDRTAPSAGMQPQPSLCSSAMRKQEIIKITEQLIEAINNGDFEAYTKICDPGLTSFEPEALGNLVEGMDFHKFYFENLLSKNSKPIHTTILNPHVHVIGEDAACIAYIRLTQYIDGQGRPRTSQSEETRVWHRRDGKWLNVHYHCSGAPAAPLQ

[5] = target: Discoidin domain-containing receptor 2 (Homo sapiens) (UniProt Q16832); test: Inhibition of DDR2 at 10 uM; conditions: values are per cent of control
[6] = target: Ephrin type-B receptor 4 (Homo sapiens) (UniProt P54760); test: Inhibition of EPHB4 at 10 uM; conditions: values are per cent of control
[7] = target: Cyclin-G-associated kinase (Homo sapiens) (UniProt O14976); test: Inhibition of GAK at 10 uM; conditions: values are per cent of control
[8] = target: Mast/stem cell growth factor receptor Kit (Homo sapiens) (UniProt P10721); test: Inhibition of KIT at 10 uM; conditions: values are per cent of control
[9] = test system: Mast/stem cell growth factor receptor Kit (Homo sapiens), P10721 [V559D,T670I]; test: Inhibition of KIT V559D, T670I mutant at 10 uM; conditions: values are per cent of control
[10] = target: Myosin-IIIb (Homo sapiens) (UniProt Q8WXR4); test: Inhibition of MYO3B at 10 uM
[11] = target: SRSF protein kinase 3 (Homo sapiens) (UniProt Q9UPE1); test: Inhibition of SRPK3 at 10 uM
Sequence of SRSF protein kinase 3 (Homo sapiens) (Q9UPE1 whole entry): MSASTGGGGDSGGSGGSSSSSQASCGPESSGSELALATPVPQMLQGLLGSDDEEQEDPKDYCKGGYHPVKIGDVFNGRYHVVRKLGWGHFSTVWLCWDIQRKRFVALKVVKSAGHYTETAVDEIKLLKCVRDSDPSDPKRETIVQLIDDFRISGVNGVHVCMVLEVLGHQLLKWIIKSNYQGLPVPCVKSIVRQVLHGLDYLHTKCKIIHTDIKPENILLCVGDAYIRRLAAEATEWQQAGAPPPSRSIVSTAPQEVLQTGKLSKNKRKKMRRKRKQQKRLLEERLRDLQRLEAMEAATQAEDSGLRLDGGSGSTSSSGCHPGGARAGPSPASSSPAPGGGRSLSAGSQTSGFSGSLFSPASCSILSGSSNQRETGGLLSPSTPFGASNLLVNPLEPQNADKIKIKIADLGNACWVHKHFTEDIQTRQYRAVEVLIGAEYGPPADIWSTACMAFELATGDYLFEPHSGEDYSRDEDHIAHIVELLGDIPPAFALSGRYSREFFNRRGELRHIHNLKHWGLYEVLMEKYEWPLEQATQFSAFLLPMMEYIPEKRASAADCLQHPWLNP

[12] = target: Serine/threonine-protein kinase 33 (Homo sapiens) (UniProt Q9BYT3); test: Inhibition of STK33 at 10 uM
Sequence of Serine/threonine-protein kinase 33 (Homo sapiens) (Q9BYT3 whole entry, looked up): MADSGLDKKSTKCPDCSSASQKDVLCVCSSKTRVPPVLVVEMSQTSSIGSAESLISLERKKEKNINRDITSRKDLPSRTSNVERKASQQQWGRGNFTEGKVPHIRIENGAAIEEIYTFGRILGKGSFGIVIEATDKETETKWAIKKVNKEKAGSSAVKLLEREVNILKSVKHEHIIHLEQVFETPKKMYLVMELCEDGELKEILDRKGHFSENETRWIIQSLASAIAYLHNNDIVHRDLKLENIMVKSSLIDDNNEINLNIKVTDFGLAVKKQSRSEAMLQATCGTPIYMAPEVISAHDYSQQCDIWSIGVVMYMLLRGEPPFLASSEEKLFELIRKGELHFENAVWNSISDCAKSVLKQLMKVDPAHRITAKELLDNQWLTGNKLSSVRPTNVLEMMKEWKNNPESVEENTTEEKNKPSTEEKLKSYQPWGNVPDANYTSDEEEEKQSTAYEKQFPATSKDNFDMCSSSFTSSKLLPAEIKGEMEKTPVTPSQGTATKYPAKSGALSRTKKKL

[13] = target: Non-receptor tyrosine-protein kinase TNK1 (Homo sapiens) (UniProt Q13470); test: Inhibition of TNK1 at 10 uM; conditions: values are per cent of control
[14] = target: Serine/threonine-protein kinase PAK 5 (Homo sapiens) (UniProt Q9P286); test: Inhibition of PAK7 at 10 uM; conditions: values are per cent of control
[15] = target: Serine/threonine-protein kinase pim-1 (Homo sapiens) (UniProt P11309); test: Inhibition of PIM1 at 10 uM
[16] = target: Phosphatidylinositol 4-phosphate 5-kinase type-1 alpha (Homo sapiens) (UniProt Q99755); test: Inhibition of PIP5K1A at 10 uM
Sequence of Phosphatidylinositol 4-phosphate 5-kinase type-1 alpha (Homo sapiens) (Q99755 whole entry): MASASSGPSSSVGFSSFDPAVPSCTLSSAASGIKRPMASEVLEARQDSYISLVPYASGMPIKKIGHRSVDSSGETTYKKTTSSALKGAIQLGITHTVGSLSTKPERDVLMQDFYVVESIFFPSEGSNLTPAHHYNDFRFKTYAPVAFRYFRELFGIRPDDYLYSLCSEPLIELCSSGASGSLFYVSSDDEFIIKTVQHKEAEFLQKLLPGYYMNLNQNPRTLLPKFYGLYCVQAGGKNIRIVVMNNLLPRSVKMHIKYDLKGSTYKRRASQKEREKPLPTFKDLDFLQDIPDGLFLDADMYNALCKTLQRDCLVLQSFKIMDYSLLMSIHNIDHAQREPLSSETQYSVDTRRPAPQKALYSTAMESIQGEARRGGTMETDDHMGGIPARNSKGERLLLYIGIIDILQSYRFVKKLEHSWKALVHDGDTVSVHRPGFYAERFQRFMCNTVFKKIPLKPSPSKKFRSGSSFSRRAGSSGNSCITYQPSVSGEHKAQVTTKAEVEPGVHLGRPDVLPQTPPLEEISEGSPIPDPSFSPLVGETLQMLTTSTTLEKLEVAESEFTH

[17] = target: Phosphatidylinositol 5-phosphate 4-kinase type-2 beta (Homo sapiens) (UniProt P78356); test: Inhibition of PIP5K2B at 10 uM
[18] = target: Protein kinase C epsilon type (Homo sapiens) (UniProt Q02156); test: Inhibition of PRKCE at 10 uM
[19] = target: Proto-oncogene tyrosine-protein kinase ROS (Homo sapiens) (UniProt P08922); test: Inhibition of ROS1 at 10 uM
Sequence of Proto-oncogene tyrosine-protein kinase ROS (Homo sapiens) (P08922 whole entry): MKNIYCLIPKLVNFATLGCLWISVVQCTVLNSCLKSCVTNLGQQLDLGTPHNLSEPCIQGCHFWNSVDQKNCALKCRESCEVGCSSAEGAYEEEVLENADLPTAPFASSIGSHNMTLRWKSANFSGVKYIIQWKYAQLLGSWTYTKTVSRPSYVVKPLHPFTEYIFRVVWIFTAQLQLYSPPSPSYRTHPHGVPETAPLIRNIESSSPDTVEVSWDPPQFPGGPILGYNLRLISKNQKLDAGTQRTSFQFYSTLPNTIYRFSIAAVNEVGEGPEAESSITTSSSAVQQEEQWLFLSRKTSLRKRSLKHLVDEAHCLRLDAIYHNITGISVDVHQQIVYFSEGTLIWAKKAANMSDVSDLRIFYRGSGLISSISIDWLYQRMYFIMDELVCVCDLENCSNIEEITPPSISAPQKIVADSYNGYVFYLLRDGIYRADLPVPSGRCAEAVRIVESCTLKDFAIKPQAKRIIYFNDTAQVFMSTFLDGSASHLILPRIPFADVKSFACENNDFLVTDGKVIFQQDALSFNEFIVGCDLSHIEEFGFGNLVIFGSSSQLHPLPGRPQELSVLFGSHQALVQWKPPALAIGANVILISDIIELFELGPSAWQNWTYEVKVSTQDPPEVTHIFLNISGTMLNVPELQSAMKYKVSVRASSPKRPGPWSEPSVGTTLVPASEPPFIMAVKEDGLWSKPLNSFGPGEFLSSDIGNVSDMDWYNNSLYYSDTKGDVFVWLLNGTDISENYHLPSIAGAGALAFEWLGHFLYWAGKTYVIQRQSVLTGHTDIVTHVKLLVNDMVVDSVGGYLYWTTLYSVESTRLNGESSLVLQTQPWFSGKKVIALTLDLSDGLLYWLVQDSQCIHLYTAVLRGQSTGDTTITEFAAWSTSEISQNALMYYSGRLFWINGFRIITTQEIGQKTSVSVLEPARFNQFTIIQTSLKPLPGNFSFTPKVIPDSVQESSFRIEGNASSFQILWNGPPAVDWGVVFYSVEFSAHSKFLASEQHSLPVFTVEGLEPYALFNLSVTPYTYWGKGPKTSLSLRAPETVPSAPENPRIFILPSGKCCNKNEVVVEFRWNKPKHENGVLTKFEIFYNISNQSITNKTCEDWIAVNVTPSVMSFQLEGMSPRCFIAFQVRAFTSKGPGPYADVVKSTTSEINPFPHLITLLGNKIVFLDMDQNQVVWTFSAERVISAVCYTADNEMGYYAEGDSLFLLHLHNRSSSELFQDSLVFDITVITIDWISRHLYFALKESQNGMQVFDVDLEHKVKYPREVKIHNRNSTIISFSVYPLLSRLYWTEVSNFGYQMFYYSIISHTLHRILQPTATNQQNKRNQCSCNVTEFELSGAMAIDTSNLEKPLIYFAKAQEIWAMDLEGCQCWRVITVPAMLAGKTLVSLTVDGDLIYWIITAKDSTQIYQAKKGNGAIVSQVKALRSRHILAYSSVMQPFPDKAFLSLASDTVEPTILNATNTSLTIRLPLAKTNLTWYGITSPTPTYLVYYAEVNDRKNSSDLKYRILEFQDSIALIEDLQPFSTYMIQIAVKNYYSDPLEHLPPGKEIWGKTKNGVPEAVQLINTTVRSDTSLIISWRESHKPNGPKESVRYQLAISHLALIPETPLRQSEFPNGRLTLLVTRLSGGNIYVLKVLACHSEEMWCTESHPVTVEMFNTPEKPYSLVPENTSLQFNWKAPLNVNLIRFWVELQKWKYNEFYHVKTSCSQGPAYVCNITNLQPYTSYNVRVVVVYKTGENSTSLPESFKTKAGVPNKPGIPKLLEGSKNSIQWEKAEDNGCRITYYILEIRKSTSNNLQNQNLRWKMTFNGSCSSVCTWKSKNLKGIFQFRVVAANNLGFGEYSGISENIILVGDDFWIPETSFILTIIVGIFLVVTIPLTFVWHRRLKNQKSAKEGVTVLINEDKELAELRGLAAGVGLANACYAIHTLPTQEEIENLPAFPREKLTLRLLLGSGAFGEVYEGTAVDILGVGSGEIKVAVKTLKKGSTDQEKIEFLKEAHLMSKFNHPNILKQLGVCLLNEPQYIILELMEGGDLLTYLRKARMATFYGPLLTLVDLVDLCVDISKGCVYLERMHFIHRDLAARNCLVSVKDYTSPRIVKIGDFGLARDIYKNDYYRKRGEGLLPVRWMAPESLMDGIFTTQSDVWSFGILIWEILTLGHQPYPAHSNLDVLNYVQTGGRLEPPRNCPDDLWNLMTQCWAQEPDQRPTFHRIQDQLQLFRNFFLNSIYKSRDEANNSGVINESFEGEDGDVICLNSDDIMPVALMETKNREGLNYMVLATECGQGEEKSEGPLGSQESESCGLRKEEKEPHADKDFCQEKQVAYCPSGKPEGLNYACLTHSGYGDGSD

[20] = target: Serine/threonine-protein kinase SIK2 (Homo sapiens) (UniProt Q9H0K1); test: Inhibition of SIK2 at 10 uM
[21] = target: Proto-oncogene tyrosine-protein kinase Src (Homo sapiens) (UniProt P12931); test: Inhibition of SRC at 10 uM; values are per cent of control
Sequence of Proto-oncogene tyrosine-protein kinase Src (Homo sapiens) (P12931 2-536 limits assumed): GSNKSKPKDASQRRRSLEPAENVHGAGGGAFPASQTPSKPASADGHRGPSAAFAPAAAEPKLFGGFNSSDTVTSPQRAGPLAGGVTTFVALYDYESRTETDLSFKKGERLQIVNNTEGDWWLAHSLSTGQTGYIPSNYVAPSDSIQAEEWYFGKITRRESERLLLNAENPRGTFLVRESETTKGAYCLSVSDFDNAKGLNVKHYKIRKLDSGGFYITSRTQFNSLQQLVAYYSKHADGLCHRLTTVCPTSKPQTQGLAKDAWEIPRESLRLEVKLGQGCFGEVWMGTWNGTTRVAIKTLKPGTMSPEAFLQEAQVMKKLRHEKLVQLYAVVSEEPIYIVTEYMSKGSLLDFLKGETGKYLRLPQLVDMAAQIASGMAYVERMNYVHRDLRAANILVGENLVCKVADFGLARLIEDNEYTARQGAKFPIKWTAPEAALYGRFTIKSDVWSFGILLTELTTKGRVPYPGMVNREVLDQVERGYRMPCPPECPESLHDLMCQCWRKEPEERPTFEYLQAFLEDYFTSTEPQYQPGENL

[22] = target: Cyclin-dependent kinase 5 (Homo sapiens) (UniProt Q00535); test: Inhibition of CDK5 at 10 uM; values are per cent of control
[23] = target: Interleukin-1 receptor-associated kinase 1 (Homo sapiens) (UniProt P51617); test: Inhibition of IRAK1 at 10 uM; values are per cent of control
[24] = target: Casein kinase I isoform gamma-1 (Homo sapiens) (UniProt Q9HCP0); test: Inhibition of CSNK1G1 at 10 uM; values are per cent of control

SMILES	residual binding, % of control [1] [%]	residual binding, % of control [2] [%]	residual binding, % of control [3] [%]	residual binding, % of control [4] [%]	residual binding, % of control [5] [%]	residual binding, % of control [6] [%]	residual binding, % of control [7] [%]	residual binding, % of control [8] [%]	residual binding, % of control [9] [%]	inhibition [10] [%]	inhibition [11] [%]	inhibition [12] [%]	residual binding, % of control [13] [%]	residual binding, % of control [14] [%]	inhibition [15] [%]	inhibition [16] [%]	inhibition [17] [%]	inhibition [18] [%]	inhibition [19] [%]	inhibition [20] [%]	further results
CCN1CCN(Cc2ccc(NC(=O)c3ccc(C)c(C#Cc4cccnc4)c3)cc2C(F)(F)F)CC1	6.4	0	100	95	1	1.6	7.4	0	0	0	45	14	0	83	84	79	58	54	46	21	% of control [21]: 0%; level, % of control [22]: 10%; level, % of control [23]: 1.2%; level, % of control [24]: 100%
CCN1CCN(Cc2ccc(NC(=O)c3ccc(C)c(C#Cc4cnc5[nH]ccc5c4)c3)cc2C(F)(F)F)CC1	1.6	0.05	24	92	2.8	0.8	2	0	0	0	11	6.8	0.8	64	100	10	7.7	78	34	18	% of control [21]: 0.05%; level, % of control [22]: 24%; level, % of control [23]: 6.2%; level, % of control [24]: 100%
